Measurements reported in paper PMC7822115 (Viruses, 2020).
Like-named read-outs stand apart in the source and are kept apart here.

Legend:
[1] = in vivo; cited from earlier work
SARS-CoV-2 [2] = assay: microbe, parasite or virus in culture; type: cell-based; details: for EC50: Severe acute respiratory syndrome coronavirus 2, Vero, 48 h, read-out: EC50 (95% CI)
SARS-CoV-2 [3] = assay: microbe, parasite or virus in culture; type: cell-based
Vero cells = details: African green monkey
MERS-CoV = assay: microbe, parasite or virus in culture; type: cell-based; details: Middle East respiratory syndrome-related coronavirus, Vero, 48 h, read-out: EC50 (95% CI)
in vitro [4] = details: human
in vitro [5] = details: African green monkey

| SMILES | Peak human serum concentration [1] | SARS-CoV-2 titer after treatment (in words) (SARS-CoV-2 [2]) | EC50 (SARS-CoV-2 [2]) | Cellular viability / toxicity compared to the media control (in words) (A549/ACE2 cells) | EC50 (SARS-CoV-2 [3]; Severe acute respiratory syndrome coronavirus 2, A549-ACE2, 48 h, read-out: EC50 (95% CI)) | Concentration at which cellular toxicity was observed (Vero cells) | EC50 (MERS-CoV) | CC50 (in vitro [4]) | CC50 (in vitro [5]) | Decrease in mean SARS-CoV-2 titer compared to the control (SARS-CoV-2 [3]) | Concentration at which cellular toxicity was detected (A549/ACE2 cells; human) | SARS-CoV-2 titer after treatment (in words) (SARS-CoV-2 [3]) | SARS-CoV-2 replication after treatment (in words) (SARS-CoV-2 [2]) | SARS-CoV-2 replication after treatment (in words) (SARS-CoV-2 [3]) |
| --- | --- | --- | --- | --- | --- | --- | --- | --- | --- | --- | --- | --- | --- | --- |
| O=C(O)c1cn(C2CC2)c2cc(N3CCNCC3)c(F)cc2c1=O [Ciprofloxacin, ciprofloxacin] | 7.2 µM | below the level of detection | 247 µM | – | – | – | – | – | – | – | – | – | – | – |
| CCn1cc(C(=O)O)c(=O)c2cc(F)c(N3CCNCC3)nc21 [Enoxacin, enoxacin] | 11.2 µM | – | 126 µM | not different from the media control | 227 µM | ≥ 37.5 µM | 343 µM | > 600 µM | > 600 µM | – | – | – | – | – |
| C[C@H]1COc2c(N3CCN(C)CC3)c(F)cc3c(=O)c(C(=O)O)cn1c23 [Levofloxacin, levofloxacin] | – | – | 419 µM | – | – | – | – | > 600 µM | > 600 µM | 1.4 log | – | – | – | – |
| COc1c(N2C[C@@H]3CCCN[C@@H]3C2)c(F)cc2c(=O)c(C(=O)O)cn(C3CC3)c12 [Moxifloxacin, moxifloxacin] | 8.6 µM | below the level of detection | 240 µM | – | – | ≥ 300 µM | – | > 600 µM | > 600 µM | 2.2 log | ≥ 300 µM | below the level of detection | – | – |
| O=C(Nc1ccc([N+](=O)[O-])cc1Cl)c1cc(Cl)ccc1O [niclosamide] | – | – | – | – | – | – | – | – | – | – | – | – | below the level of detection | below the level of detection |
